Each structure is given as a SMILES string.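 Each compound was tested at five concentrations against cells in 96-well plates for 48 hours. TGI is the concentration that stops growth completely.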

Experiment in all cases: NCI tumour cell line growth inhibition, 48 h
Experiment [1] relates to HOP-62 NSCLC.
The test system of experiment [2] is UACC-257 melanoma.
Experiment [3] relates to CCRF-CEM leukemia.
In experiment [4] the test system is HCT-116 colon.
In experiment [5] the test system is SK-MEL-2 melanoma.
For experiment [6], the system named is SN12C renal.
Experiment [7] relates to SNB-19 CNS.
Experiment [8] deals with 786-0 renal.
Experiment [9] deals with OVCAR-8 ovarian.
Experiment [10] concerns BT-549 breast.
Experiment [11] deals with IGROV1 ovarian.
Experiment [12] has as its system KM12 colon.
Experiment [13] concerns SF-539 CNS.
Experiment [14] has as its system HOP-92 NSCLC.

In the case of `COC1/C=C(C)/C=C/C(C)/C=C/C(=O)OC(/C(C)=C/C=C(\C)CNC(=O)[C@H](CO)NC=O)C(C)/C=C/C=C/C(OC)CC/C=C(C)/C=C/C1` (stereo partly drawn), the TGI in [1] was 0.109 µM; in experiment [2], greater than 0.206 µM; in experiment [3], greater than 1 µM; in experiment [4], greater than 1 µM; in experiment [5] it was greater than 0.246 µM; in [6] it was greater than 1 µM. The TGI in experiment [7], in experiment [8], in [9], in experiment [10], in [11] and in experiment [12] was greater than 1 µM throughout. The TGI in experiment [13] was greater than 0.257 µM; in [14] it was greater than 0.267 µM.

Turning to `Cc1ccc([N+](=O)[O-])cc1S(=O)(=O)Nc1ccc(C2=NN(S(=O)(=O)c3cc([N+](=O)[O-])ccc3C)C(c3ccccc3)C2)cc1` (stereo not drawn), the TGI in experiment [1] was greater than 100 µM; in experiment [2] it was 74.7 µM; in [3], greater than 100 µM; in experiment [4], 51.8 µM; in experiment [5], 61.6 µM; in experiment [6] it was greater than 100 µM. Moreover, the TGI in [7] was greater than 100 µM; in experiment [8], greater than 100 µM; in experiment [9], greater than 100 µM; in [10], 57.2 µM; in experiment [11], greater than 100 µM; in [12] it was greater than 100 µM. This compound showed a TGI in [14] greater than 100 µM.

Take `CCCCN1C(=O)C2Cc3c([nH]c4ccccc34)C(c3cccc(O)c3)N2C1=O` (stereo not drawn): the TGI in experiment [1] came out at 33.1 µM; in [2], 33.9 µM; in experiment [3] it was 36.2 µM; in experiment [4] it was 34.9 µM; in experiment [5], 32.9 µM; in experiment [6] it was 32.5 µM. The TGI in experiment [7] came out at 34.6 µM; in [8], 34.4 µM; in experiment [9], 33.2 µM; in [10], 34.2 µM; in experiment [11], 31.3 µM; in experiment [12] it was 36.2 µM. Besides, the results for the TGI in experiment [13] and in experiment [14] were 34.3 µM and 33.8 µM, respectively.

Regarding `C[C@H]1C[C@@H]2[C@H]([C@@H](O)C[C@@]3(C)[C@H]2CC[C@]3(O)C(=O)CO)[C@@]2(C)C=CC(=O)C=C12`, the TGI in experiment [1], in experiment [2], in experiment [3], in experiment [4], in experiment [5] and in [6] was greater than 100 µM each time. The TGI in experiment [8], in experiment [9], in [11], in experiment [12] and in experiment [14] was greater than 100 µM in each case.

On to `CC(=O)Oc1ccccc1`, for which the TGI in experiment [1], in [2], in experiment [3], in experiment [4], in [5] and in [6] was greater than 100 µM throughout. In addition, the TGI in [7], in [8], in experiment [9], in experiment [11], in [12] and in [13] was greater than 100 µM throughout.

Take `COc1cc(C(=O)NC2CCc3cc(OC)c(OC)c(OC)c3-c3ccc(OC)c(=O)cc32)cc(OC)c1OC` (stereo not drawn): the TGI in experiment [1] was greater than 100 µM; in experiment [2], 59.3 µM; in experiment [3], greater than 35 µM; in experiment [4], 1.69 µM; in experiment [5], greater than 24.1 µM; in experiment [6] it was greater than 100 µM. Also, the TGI in experiment [7] is greater than 100 µM; in experiment [8], 70.9 µM; in experiment [9], greater than 46.1 µM; in [11] it was 71.6 µM; in [12], 0.801 µM; in experiment [13] it was 0.0689 µM. Also, the TGI in experiment [14] was determined as 3.62 µM.

`c1ccc2c(CSCc3cccc4ccccc34)cccc2c1`: the TGI in [1], in [2], in experiment [3], in [4], in experiment [5] and in [6] was greater than 100 µM throughout. Moreover, the TGI in experiment [7], in experiment [8], in [9], in [10], in [11] and in [12] was greater than 100 µM in each case. The TGI in experiment [14] is greater than 100 µM.

On to `Cc1c2ccccc2c(C2C3C(=O)N(c4ccc(Br)cc4)C(=O)C3ON2C(C(N)=O)c2ccccc2)c2ccccc12` (stereo not drawn), for which the TGI is 36.1 µM in experiment [1]; 62.4 µM in experiment [2]; 22.4 µM in [3]; greater than 100 µM in experiment [4]; 30.3 µM in [5]; 53.5 µM in [6]. Also, the TGI in [7] worked out at 22.6 µM; in experiment [8], 33.1 µM; in experiment [9], 48 µM; in [10] it was 43.4 µM; in [11], 18.2 µM; in [12], 22.1 µM. Moreover, the TGI in [13] was determined as 17.7 µM; in [14], 39.4 µM.

Turning to `COc1cc2c(c(OC)c1OC)-c1ccc(OC)c(=O)cc1C(NC(=O)COc1ccccc1)CC2` (stereo not drawn), the TGI was greater than 100 µM in experiment [1]; greater than 100 µM in experiment [2]; greater than 63.4 µM in [3]; greater than 15.8 µM in experiment [5]; greater than 100 µM in [6]; greater than 100 µM in experiment [7]. The TGI in experiment [8] is 93.8 µM; in experiment [9], 13.1 µM; in experiment [10] it was 5.12 µM; in [11] it was greater than 92.3 µM; in experiment [12] it was less than 0.011 µM; in [13] it was less than 0.01 µM. This compound also came in with a TGI in experiment [14] of 2.91 µM.

As to `C[C@@H]1C[C@H]2[C@@H]3CCC4=CC(=O)C=C[C@]4(C)[C@@]3(F)[C@@H](O)C[C@]2(C)[C@@]1(O)C(=O)CO`, the TGI in experiment [1], in [2], in experiment [3], in [4], in [5] and in experiment [6] was greater than 100 µM in each case. For the same compound, the TGI in [8], in experiment [9], in experiment [11], in [12] and in experiment [14] was greater than 100 µM in each case.

The values are drawn from PubChem BioAssay (NCI).
